Measurements published in patent publication US20190343782A1, “METHODS OF TREATING LIVER TOXICITY AND DISORDERS” (Yeda Research and Development Co. Ltd., priority 2016, published 2019).

Assay: APAP-induced hepatotoxicity: liver enzyme release and liver histology
Type: in vivo
Conditions: control mice; APAP 500 mg/kg intraperitoneally at ZT0 versus ZT12; analyzed 10 hours after injection
Method: Mice: C57B1/6 mice were purchased from Harlan and allowed to acclimatize to the animal facility environment for 2 weeks before used for experimentation. […] In all experiments, age- and gender-matched mice were used. Mice were 8-9 weeks of age at the beginning of experiments. All mice were kept at a strict 24-hour light-dark cycle, with lights being turn on from 6 am to 6 pm. […] Acetaminophen was administered intraperitoneally at a concentration of 500 mg/kg at either ZT0 or ZT12, and mice were analyzed 10 hours after injection. All antibiotics as well as acetaminophen were obtained from Sigma Aldrich.
Histology: Sections from the left lobe of the liver were fixed in paraformaldehyde and embedded in paraffin for staining with H&E. Subsequently, sections were examined by a blinded veterinary pathologist and scored for necrosis and hemorrhage on a scale from 0 (healthy) to 3 (most severe).
Statistical analysis: Data are expressed as mean ±SEM. […] Unless stated otherwise, elements with p<0.05 and q<0.1 were considered significant. For metabolites, q<0.2 was considered significant. For two-group comparisons, Mann-Whitney U-test was used and comparisons with p<0.05 were considered significant.

## CC(=O)Nc1ccc(O)cc1 [APAP, acetaminophen]
  APAP-induced hepatotoxicity (liver enzyme release, liver histology): dramatically exacerbated liver toxicity when APAP was injected at ZT12 as compared to ZTO
